Laboratory results as given in patent US20040063692A1, “Bazedoxifene treatment regimens” (Wyeth, priority 2002, published 2004).

Key:
Format in all cases: in vivo, Female Sprague Dawley CD rats
[1] = system: ovariectomized (ovx) rats; assay: Uterine weight in ovariectomized rats, daily or once weekly dosing; settings: 6 weeks
Description: (§1) The ability of bazedoxifene to be successfully administered on an extended dosing regimen was established in an in vivo standard pharmacological test procedure which evaluated bone mineral density (BMD), change in body weight, and uterine weight using bazedoxifene acetate as a representative compound of this invention. The following briefly describes the procedure used and results obtained in the standard pharmacological test procedure.
(§2) Female Sprague Dawley CD rats, ovariectomized (ovx) or sham ovx, were obtained 1 day after surgery from Taconic Farm (weight range 240-275 g). They were housed 3 or 4 rats/cage in a room on a 14/10 (light/dark) schedule and provided with food (Purina 500 rat chow) and water ad libitum. Treatment for all studies began 1 day after the animals arrival and dosed either daily or once weekly as indicated for 6 weeks. A group of age matched sham operated rats not receiving any treatment served as an intact, estrogen replete control group for each study. All treatments were prepared in 1% tween 80 in normal saline at defined concentrations so that the treatment volume was 0.1 mL/100 g body weight.
(§3) One week after BMD evaluation the rats were euthanized by carbon dioxide suffocation. The uteri were removed and the weights taken. The following table summarizes the results that were obtained. The sham group was not ovariectomized; all other groups were ovariectomized. In the table below, bazedoxifene acetate is abbreviated as BZA.

[2] = Change in body weight in ovariectomized rats, daily or once weekly dosing; settings: ovx rats, 6 weeks
Description: as §1, §2, §3

[3] = system: ovariectomized (ovx) rats; assay: Bone mineral density (BMD) in ovariectomized rats, daily or once weekly dosing; settings: measured five weeks after initiation of treatment
Description: as §1, §2
Five weeks after the initiation of treatment and one week prior to the termination of the study, each rat was evaluated for bone mineral density (BMD). The BMD's of the proximal tibiae (PT) and fourth lumbar vertabrae (L4) were measured in anesthetized rats using a dual energy X-ray absorptiometer (Eclipse XR-26, Norland Corp. Ft. Atkins, Wis.). The dual energy X-ray absorptiometer (DXA) measurements for each rat were performed as follows: Fifteen minutes prior to DXA measurements, the rat was anesthetized with an intraperitoneal injection of 100 mg/kg ketamine (Bristol Laboratories, Syracuse, N.Y.) and 0.75 mg/kg acepromazine (Aveco, Ft.Dodge, Iowa). The rat was placed on an acrylic table under the DXA scanner perpendicular to its path; the limbs were extended and secured with paper tape to the surface of the table. A preliminary scan was performed at a scan speed of 50 mm/second with a scan resolution of 1.5 mm×1.5 mm to determine the region of interest in PT and L4. Small subject software was employed at a scan speed of 10 mm/second with resolution of 0.5 mm X 0.5 mm for final BMD measurements. The software allows the operator to define a 1.5 cm wide area to cover the total length of L4. The BMDs for respective sites were computed by the software as a function of the attenuation of the dual beam (46.8 KeV and 80 KeV) X-ray generated by the source underneath the subject and the detector travelling along the defined area above the subject. The data for BMD values (expressed in g/cm2) and individual scans were stored for statistical analysis.

## Cc1c(-c2ccc(O)cc2)n(Cc2ccc(OCCN3CCCCCC3)cc2)c2ccc(O)cc12 [BZA, 1-[4-(2-azepan-1-yl-ethoxy)-benzyl]-2-(4-hydroxy-phenyl)-3-methyl-1H-indol-5-ol]
[1]; 0.3 mg/kg 1×/week
  Uterine Weight, Mean ± SEM: 131.3 ± 7.0 mg
[1]; 0.3 mg/kg 7×/week
  Uterine Weight, Mean ± SEM: 140.3 ± 6.3 mg
[1]; 1.0 mg/kg 1×/week
  Uterine Weight, Mean ± SEM: 149.9 ± 5.0 mg
[1]; 3.0 mg/kg 1×/week
  Uterine Weight, Mean ± SEM: 127.3 ± 10.9 mg
[2]; 0.3 mg/kg 1×/week
  Δ Body Weight, Mean ± SEM: 80.5 ± 2.0 g
[2]; 0.3 mg/kg 7×/week
  Δ Body Weight, Mean ± SEM: 60 ± 5.6 g
[2]; 1.0 mg/kg 1×/week
  Δ Body Weight, Mean ± SEM: 71.3 ± 4.8 g
[2]; 3.0 mg/kg 1×/week
  Δ Body Weight, Mean ± SEM: 59.3 ± 7.0 g
[3]; 0.3 mg/kg 1×/week
  Total BMD, Mean ± SEM: 556.56 ± 20.5 mg/mL
  Trabecular BMD, Mean ± SEM: 361.93 ± 34.5 mg/mL
[3]; 0.3 mg/kg 7×/week
  Total BMD, Mean ± SEM: 604.33 ± 18.6 mg/mL
  Trabecular BMD, Mean ± SEM: 425.90 ± 26.3 mg/mL
[3]; 1.0 mg/kg 1×/week
  Total BMD, Mean ± SEM: 562.90 ± 7.7 mg/mL
  Trabecular BMD, Mean ± SEM: 353.03 ± 15.7 mg/mL
[3]; 3.0 mg/kg 1×/week
  Total BMD, Mean ± SEM: 589.36 ± 10.9 mg/mL
  Trabecular BMD, Mean ± SEM: 427.00 ± 10.0 mg/mL
